# Measurements as given in patent US8992933B2, “Methods for activating T cells and modulating an immune response” (New York University, priority 2011, dated 2015).
# B1: IL-23: cytokine (R&D Systems) (protein, UniProt Q9NPF7 20-189; P29460 23-328, looked up)
# Interleukin-23 subunit alpha: RAVPGGSSPAWTQCQQLSQKLCTLAWSAHPLVGHMDLREEGDEETTNDVPHIQCGDGCDPQGLRDNSQFCLQRIHQGLIFYEKLLGSDIFTGEPSLLPDSPVGQLHASLLGLSQLLQPEGHHWETQQIPSLSPSQPWQRLLLRFKILRSLQAFVAVAARVFAHGAATLSP
# Interleukin-12 subunit beta: IWELKKDVYVVELDWYPDAPGEMVVLTCDTPEEDGITWTLDQSSEVLGSGKTLTIQVKEFGDAGQYTCHKGGEVLSHSLLLLHKKEDGIWSTDILKDQKEPKNKTFLRCEAKNYSGRFTCWWLTTISTDLTFSVKSSRGSSDPQGVTCGAATLSAERVRGDNKEYEYSVECQEDSACPAAEESLPIEVMVDAVHKLKYENYTSSFFIRDIIKPDPPKNLQLKPLKNSRQVEVSWEYPDTWSTPHSYFSLTFCVQVQGKSKREKKDRVFTDKTSATVICRKNASISVRAQDRYYSSSWSEWASVPCS
# Assays:
# Assay type in all cases: cell-based, human
# CCR6+ TM cells [1] = assay: PI-3K/Akt inhibitor treatment of IL-7-cultured CCR6+ TM cells, cytokine production after PMA and ionomycin
# Experimental: Peripheral Blood Mononuclear Cells (PBMCs) from healthy individuals (New York Blood Center, New York, N.Y.) were prepared using Ficoll-paque plus (GE Amersham, Uppsala, Sweden). […] All healthy donor and patient samples were consented prior to purchase, were none-identifiable and approved by institutional human subjects board. CD4^+ T cells were isolated using Dynal CD4 Positive Isolation Kit (Invitrogen, Carlsbad, Calif.) directly from purified PBMCs and were >99% pure. CD4^+ T cells were sorted by FACS ARIA cell sorter (BD, San Jose, Calif.) into CD45RO^+ CD25^− memory T (TM) cells. TM cells were activated either by anti-CD3 and anti-CD28 (aCD3/aCD28) coated beads (1:4 beads:cells ratio) for 18-24 hours, or by Phorbol 12-myristate 13-acetate (PMA) and ionomycin for 4 hours and further FACS sorted based on CCR6 and IL-17 expression into CCR6^− IL-17^−, CCR6^+IL-17^+, or CCR6^+IL-17^− subsets (as determined by secretion assay labeling, see below). Sorted cells (>99% pure) were cultured in serum-free Xvivo-15 medium (Lonza, Wakersville, Md.) at 37° C. and 5% CO2 for 6-7 days prior to restimulation with PMA and ionomycin (see below). Culture conditions included: 10 U/mL recombinant human IL-2, (BD Biosciences, San Jose, Calif.), 20 ng/mL IL-7, 20 ng/mL IL-15, or 20 ng/mL IL-23 (all from R&D Systems, Minneapolis, Minn.). […] In the experiments using PI-3K signaling inhibitors, cells were treated with PI-3K specific inhibitor, LY294002 (EMD, Gibbstown, N.J.), or Akt specific inhibitor, AKTi-1/2 (EMD), for 2 days before PMA and Ionomycin restimulation.
# Cells were stained as previously described (Oswald-Richter, et al., PLoS Pathogens 2007; 3: e58). For intracellular staining, T cell cultures were stimulated for 5 hours at 37° C. with PMA and Ionomycin and Golgistop (BD Biosciences). Stimulated cells were washed with PBS and stained with Fixable Viability Dye eFluor450 (eBioscience) to gate on live cells. Cells were then fixed and permeabilized by commercially available Foxp3 intracellular staining kit (eBioscience) or cytofix/cytoperm kit (BD Biosciences) as per manufacturer's protocol. Antibodies used for surface and intracellular staining included: CD45RO-FITC; CD25-PE; IFN-γ-FITC (clone 4S. B3), PE Cy7 or A700; IL-4-APC or PE; IL-17A (IL-17)-Pacific Blue (Clone BL168), FITC or Percp Cy5.5; IL-10-APC (Biolegend); IL-22-PE (R&D) or APC (eBioscience); IL-21-PE (clone 22URT1, eBioscience); FOXO1 rabbit monoclonal antibody; phospho-AKT (Ser473)-Alexa Fluor 488; Rabbit IgG isotype control-Alexa Fluor 488 (Cell Signaling, Danvers, Mass.); and CCR6-biotin (BD Biosciences). Secondary antibodies used were: Streptavidin-APC or PercpCy5.5 (BD Biosciences), Goat anti mouse-APC (BD Biosciences), anti rabbit-Alexa 647 (Molecular Probes). […]
# Akt phosphorylation = assay: Intracellular phospho-Akt (Ser473) staining
# Experimental: (§1) Cells were stained as previously described (Oswald-Richter, et al., PLoS Pathogens 2007; 3: e58). For intracellular staining, T cell cultures were stimulated for 5 hours at 37° C. with PMA and Ionomycin and Golgistop (BD Biosciences). Stimulated cells were washed with PBS and stained with Fixable Viability Dye eFluor450 (eBioscience) to gate on live cells. Cells were then fixed and permeabilized by commercially available Foxp3 intracellular staining kit (eBioscience) or cytofix/cytoperm kit (BD Biosciences) as per manufacturer's protocol. Antibodies used for surface and intracellular staining included: CD45RO-[…]3), PE Cy7 or A700; […] IL-17A (IL-17)-Pacific Blue (Clone BL168), FITC or Percp Cy5.5; […]) or APC (eBioscience); […] FOXO1 rabbit monoclonal antibody; phospho-AKT ([…])-Alexa Fluor 488; Rabbit IgG isotype control-Alexa Fluor 488 (Cell Signaling, Danvers, Mass.); and CCR6-biotin (BD Biosciences). Secondary antibodies used were: Streptavidin-APC or […]5.5 (BD Biosciences), Goat anti mouse-APC (BD Biosciences), anti rabbit-Alexa 647 (Molecular Probes). All data were acquired on LSRII instrument (BD Biosciences) using FACSDiva software. Data analyses were done using Flowjo software (Treestar Inc, Ashland, Oreg.). For phospho-Akt staining, Jurkat cells were fixed with BD Cytofix buffer (BD Biosciences) pre-warmed to 37° C. for 10 minutes. […]
# TM cells = assay: Cell viability under PI-3K/Akt inhibitor treatment; conditions: 1-10 μg/mL
# Experimental: as §1
# Klf2 = Klf2 mRNA by RT-qPCR in TM cells
# Experimental: Peripheral Blood Mononuclear Cells (PBMCs) from healthy individuals (New York Blood Center, New York, N.Y.) were prepared using Ficoll-paque plus (GE Amersham, Uppsala, Sweden). Whole blood samples from rheumatoid arthritis patients were purchased from Bioreclamation (New York, N.Y.) and were processed similar to healthy donor blood. All healthy donor and patient samples were consented prior to purchase, were none-identifiable and approved by institutional human subjects board. CD4^+ T cells were isolated using Dynal CD4 Positive Isolation Kit (Invitrogen, Carlsbad, Calif.) directly from purified PBMCs and were >99% pure. […] TM cells were activated either by anti-CD3 and anti-CD28 (aCD3/aCD28) coated beads (1:4 beads:cells ratio) for 18-24 hours, or by Phorbol 12-myristate 13-acetate (PMA) and ionomycin for 4 hours and further FACS sorted based on CCR6 and IL-17 expression into CCR6^− IL-17^−, CCR6^+IL-17^+, or CCR6^+IL-17^− subsets (as determined by secretion assay labeling, see below). […]
# Purified T cells (1×10^5) were snap frozen in liquid nitrogen for total RNA isolation. […] The extracted RNA was then reverse transcribed into cDNA and quantified using Taqman Cell to CT kit (Applied Biosystems, Carlsbad, Calif.). […] Data was acquired and analyzed on ABI 7500 sequence detection system. […]
# Rorc and Foxp3 = Rorc and Foxp3 mRNA by RT-qPCR in CCR6+/- cells; conditions: IL-7 medium 7 days, then inhibitor for 2 days
# Experimental: Peripheral Blood Mononuclear Cells (PBMCs) from healthy individuals (New York Blood Center, New York, N.Y.) were prepared using Ficoll-paque plus (GE Amersham, Uppsala, Sweden). Whole blood samples from rheumatoid arthritis patients were purchased from Bioreclamation (New York, N.Y.) and were processed similar to healthy donor blood. All healthy donor and patient samples were consented prior to purchase, were none-identifiable and approved by institutional human subjects board. […] Sorted cells (>99% pure) were cultured in serum-free Xvivo-15 medium (Lonza, Wakersville, Md.) at 37° C. and 5% CO2 for 6-7 days prior to restimulation with PMA and ionomycin (see below). […]). […] In the experiments using PI-3K signaling inhibitors, cells were treated with PI-3K specific inhibitor, LY294002 (EMD, Gibbstown, N.J.), or Akt specific inhibitor, AKTi-1/2 (EMD), for 2 days before PMA and Ionomycin restimulation. Purified T cells (1×10^5) were snap frozen in liquid nitrogen for total RNA isolation. […] The extracted RNA was then reverse transcribed into cDNA and quantified using Taqman Cell to CT kit (Applied Biosystems, Carlsbad, Calif.). […] Data was acquired and analyzed on ABI 7500 sequence detection system. Quantitative real-time PCR data was analyzed by normalizing Ct values of genes of interest to the Ct values of the housekeeping gene b-Actin.
# [2] = tested on: resting CCR6+CD45RO+CD25- TM cells; assay: Cytokine expression in resting CCR6+ TM cells cultured with cytokines, no TCR stimulation (intracellular staining)
# Experimental: (§2) Peripheral Blood Mononuclear Cells (PBMCs) from healthy individuals (New York Blood Center, New York, N.Y.) were prepared using Ficoll-paque plus (GE Amersham, Uppsala, Sweden). Whole blood samples from rheumatoid arthritis patients were purchased from Bioreclamation (New York, N.Y.) and were processed similar to healthy donor blood. All healthy donor and patient samples were consented prior to purchase, were none-identifiable and approved by institutional human subjects board. CD4^+ T cells were isolated using Dynal CD4 Positive Isolation Kit (Invitrogen, Carlsbad, Calif.) directly from purified PBMCs and were >99% pure. CD4^+ T cells were sorted by FACS ARIA cell sorter (BD, San Jose, Calif.) into CD45RO^+ CD25^− memory T (TM) cells. TM cells were activated either by anti-CD3 and anti-CD28 (aCD3/aCD28) coated beads (1:4 beads:cells ratio) for 18-24 hours, or by Phorbol 12-myristate 13-acetate (PMA) and ionomycin for 4 hours and further FACS sorted based on CCR6 and IL-17 expression into CCR6^− IL-17^−, CCR6^+IL-17^+, or CCR6^+IL-17^− subsets (as determined by secretion assay labeling, see below). Sorted cells (>99% pure) were cultured in serum-free Xvivo-15 medium (Lonza, Wakersville, Md.) at 37° C. and 5% CO2 for 6-7 days prior to restimulation with PMA and ionomycin (see below). […] To determine the fold expansion, CCR6^+IL-17^+ or CCR6 IL-17^− subsets were labeled with CFSE (Molecular Probes, Eugene, Oreg.) or eFluor 670 (eBioscience, San Diego, Calif.), respectively, as previously described (Oswald-Richter, et al., PLoS Biol 2004; 2: E198). […] In the experiments using PI-3K signaling inhibitors, cells were treated with PI-3K specific inhibitor, LY294002 (EMD, Gibbstown, N.J.), or Akt specific inhibitor, AKTi-1/2 (EMD), for 2 days before PMA and Ionomycin restimulation.
# Cells were stained as previously described (Oswald-Richter, et al., PLoS Pathogens 2007; 3: e58). For intracellular staining, T cell cultures were stimulated for 5 hours at 37° C. with PMA and Ionomycin and Golgistop (BD Biosciences). Stimulated cells were washed with PBS and stained with Fixable Viability Dye eFluor450 (eBioscience) to gate on live cells. Cells were then fixed and permeabilized by commercially available Foxp3 intracellular staining kit (eBioscience) or cytofix/cytoperm kit (BD Biosciences) as per manufacturer's protocol. Antibodies used for surface and intracellular staining included: CD45RO-FITC; CD25-PE; IFN-γ-FITC (clone 4S. B3), PE Cy7 or A700; IL-4-APC or PE; IL-17A (IL-17)-Pacific Blue (Clone BL168), FITC or Percp Cy5.5; IL-10-APC (Biolegend); IL-22-PE (R&D) or APC (eBioscience); IL-21-PE (clone 22URT1, eBioscience); FOXO1 rabbit monoclonal antibody; phospho-AKT (Ser473)-Alexa Fluor 488; Rabbit IgG isotype control-Alexa Fluor 488 (Cell Signaling, Danvers, Mass.); and CCR6-biotin (BD Biosciences). Secondary antibodies used were: Streptavidin-APC or PercpCy5.5 (BD Biosciences), Goat anti mouse-APC (BD Biosciences), anti rabbit-Alexa 647 (Molecular Probes). All data were acquired on LSRII instrument (BD Biosciences) using FACSDiva software. Data analyses were done using Flowjo software (Treestar Inc, Ashland, Oreg.). For phospho-Akt staining, Jurkat cells were fixed with BD Cytofix buffer (BD Biosciences) pre-warmed to 37° C. for 10 minutes. After spinning down, the cells were permeablilzed with ice-cold BD Phosflow Perm buffer III (BD Biosciences) on ice for 30 minutes and were stained with phospho-antibody.
# CCR6+ IL-17- TM cells = assay: IL-17 induction by cytokine culture of sorted, activated CCR6+IL-17- memory T cells (intracellular staining, FACS); conditions: cultured with the cytokine for 6 days; IL-23 in the absence of IL-2
# Experimental: as §2
# Manufacturer's protocols (Miltenyi Biotec) for labeling human and mouse IL-17 secreting cells were followed. Briefly, activated T-cells were washed in cold buffer (PBS+0.5% BSA+2 mM EDTA) and labeled with IL-17 catch reagent for 5 minutes on ice. […]
# CCR6- TM cells [3] = assay: IL-17 induction by cytokine culture of sorted, activated CCR6-IL-17- memory T cells; conditions: cultured with the cytokine, restimulation
# Experimental: (§3) Peripheral Blood Mononuclear Cells (PBMCs) from healthy individuals (New York Blood Center, New York, N.Y.) were prepared using Ficoll-paque plus (GE Amersham, Uppsala, Sweden). Whole blood samples from rheumatoid arthritis patients were purchased from Bioreclamation (New York, N.Y.) and were processed similar to healthy donor blood. All healthy donor and patient samples were consented prior to purchase, were none-identifiable and approved by institutional human subjects board. CD4^+ T cells were isolated using Dynal CD4 Positive Isolation Kit (Invitrogen, Carlsbad, Calif.) directly from purified PBMCs and were >99% pure. CD4^+ T cells were sorted by FACS ARIA cell sorter (BD, San Jose, Calif.) into CD45RO^+ CD25^− memory T (TM) cells. TM cells were activated either by anti-CD3 and anti-CD28 (aCD3/aCD28) coated beads (1:4 beads:cells ratio) for 18-24 hours, or by Phorbol 12-myristate 13-acetate (PMA) and ionomycin for 4 hours and further FACS sorted based on CCR6 and IL-17 expression into CCR6^− IL-17^−, CCR6^+IL-17^+, or CCR6^+IL-17^− subsets (as determined by secretion assay labeling, see below). Sorted cells (>99% pure) were cultured in serum-free Xvivo-15 medium (Lonza, Wakersville, Md.) at 37° C. and 5% CO2 for 6-7 days prior to restimulation with PMA and ionomycin (see below). […]
# CCR6- TM cells [4] = assay: Cytokine expression in resting CCR6- TM cells cultured with IL-7; conditions: stimulated with IL-7
# Experimental: as §3
# CCR6+ TM cells [5] = assay: Cytokine gene expression by quantitative nuclease protection assay (qNPA); conditions: IL-7 stimulation
# [6] = one week in IL-7, then inhibitor for 48 hours
molecule,measurement,setting,value
O=c1[nH]c2ccccc2n1C1CCN(Cc2ccc(-c3nc4cc5nc[nH]c5cc4nc3-c3ccccc3)cc2)CC1 [AKTi-1/2],IL-17 and IL-22 production induced by IL-7 from CCR6+ TM cells,"CCR6+ TM cells [1]; 5 μg/ml, Day 10",suppresses
same,expression of IFNγ,CCR6+ TM cells [1]; [6],not affected
same,expression of IL-4,CCR6+ TM cells [1]; [6],less reduced
same,γc-mediated IL-17/IL-22 induction,"CCR6+ TM cells [1]; one week in IL-7, then inhibitor for 48 hours, dose-dependent",repressed
same,Akt phosphorylation (Ser473) in Jurkat cells,Akt phosphorylation; Jurkat T cells treated for 30 minutes,Inhibition of Akt phosphorylation
same,cytokine-dependent phosphorylation of Akt,"Akt phosphorylation; TM cells, 1-10 μg/mL",downregulated
same,cell viability,TM cells,without adversely affecting cell viability
same,Klf2 message expression in aCD3/aCD28-activated CCR6+ TM cells expanded in IL-2,"Klf2; IL-2 medium 2 weeks, inhibitor for 2 days",upregulates
same,Rorc and Foxp3 transcripts,Rorc and Foxp3,not affected
O=c1cc(N2CCOCC2)oc2c(-c3ccccc3)cccc12 [LY294002],cell viability,TM cells,without adversely affecting cell viability
IL-4: another γc-cytokine,IL-17/IL-22 (Th17 cytokine) expression in resting CCR6+ TM cells,[2]; stimulation with the single cytokine,did not promote Th17 cytokine production
IL-7: γc-cytokine (R&D Systems),de novo IL-17 expression in CCR6+ IL-17- T cells,CCR6+ IL-17- TM cells,induced similar levels of IL-17 expression
same,IL-17 expression in CCR6- TM cells,CCR6- TM cells [3],neither IL-7 nor IL-15 induced IL-17 expression
same,expression of IL-21,[2]; CCR6+ or CCR6- TM cells upon stimulation with IL-7,slightly reduced
same,enhancement of IL-17 expression compared to the same cells ex vivo (day 0),[2]; IL-7 for 10 days,more than 3 fold
same,enhancement of IL-22 expression compared to the same cells ex vivo (day 0),[2]; IL-7 for 10 days,more than 3 fold
same,increase of double cytokine-producing cells (IL-22 or IFNγ co-expressed with IL-17),[2]; IL-7 stimulation,more than 5 fold
same,impact on IFNγ production,[2]; resting CCR6+ or CCR6- TM cells cultured with IL-7,almost no impact
same,IL-17 or IL-22 expression in CCR6- TM cells,CCR6- TM cells [4],failed to express IL-17 or IL-22
same,Klf2 expression in resting CCR6+ TM cells,Klf2; stimulation with IL-7 alone,decreased
same,Ccl20 expression,CCR6+ TM cells [5],neither significantly induced
same,"expression of non-Th17 related cytokines (Il2, Ifng, Tnf)",CCR6+ TM cells [5],not influenced
IL-15: γc-cytokine (R&D Systems),de novo IL-17 expression in CCR6+ IL-17- T cells,CCR6+ IL-17- TM cells,induced similar levels of IL-17 expression
same,IL-17 expression in CCR6- TM cells,CCR6- TM cells [3],neither IL-7 nor IL-15 induced IL-17 expression
B1,de novo IL-17 expression in CCR6+ IL-17- T cells,CCR6+ IL-17- TM cells,did not influence IL-17 expression
same,synergy with IL-7 to further induce IL-17 or IL-22 expression,[2]; IL-7 (20 ng/ml)+IL-23 (20 ng/ml) for 10 days,did not significantly synergize
